In PubChem BioAssay (NCI):
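These data come from cells grown in 96-well plates and exposed to compound for 48 hours at five concentrations. GI50: concentration for 50% inhibition of growth. TGI: concentration producing complete growth inhibition.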

Key:
Assay in all cases: NCI anticancer screen, dose series, 48 h
SNB-75 CNS = test system: SNB-75 CNS
ACHN renal = test system: ACHN renal
SR leukemia = test system: SR leukemia
HL-60(TB) leukemia = test system: HL-60(TB) leukemia
HS 578T breast = test system: HS 578T breast
NCI-H226 lung = test system: NCI-H226 lung
IGROV1 ovarian = test system: IGROV1 ovarian
DU-145 prostate = test system: DU-145 prostate
BT-549 breast = test system: BT-549 breast
HOP-92 NSCLC = test system: HOP-92 NSCLC

Row | SMILES | GI50 (SNB-75 CNS) | TGI (SNB-75 CNS) | GI50 (ACHN renal) | TGI (ACHN renal) | GI50 (SR leukemia) | TGI (SR leukemia) | GI50 (HL-60(TB) leukemia) | TGI (HL-60(TB) leukemia) | GI50 (HS 578T breast) | TGI (HS 578T breast) | GI50 (NCI-H226 lung) | TGI (NCI-H226 lung) | GI50 (IGROV1 ovarian) | TGI (IGROV1 ovarian) | GI50 (DU-145 prostate) | TGI (DU-145 prostate) | GI50 (BT-549 breast) | TGI (BT-549 breast) | GI50 (HOP-92 NSCLC) | TGI (HOP-92 NSCLC)
1 | CN(C)CCCN(CCC1CCCCC1)CCC1CCCCC1 | 1.8 µM | 6.5 µM | 4.14 µM | 14.4 µM | 0.731 µM | 3.25 µM | 2.09 µM | 9.88 µM | 1.9 µM | 4.76 µM | 12.1 µM | 26.7 µM | 1.91 µM | 4.65 µM | 5.56 µM | 17.7 µM | 7.74 µM | 22.2 µM | 1 µM | 9.7 µM
2 | Nc1c(C(=O)Nc2ccccc2)sc2nc3c(cc12)CCCCC3 | 0.378 µM | 2.91 µM | 0.998 µM | > 100 µM | 0.337 µM | 15.2 µM | 0.319 µM | 1.85 µM | 0.669 µM | 31.3 µM | 1.49 µM | 24.7 µM | 6.08 µM | > 100 µM | 0.619 µM | 31.4 µM | 0.819 µM | 20.1 µM | 0.91 µM | 18 µM
3 | C=C(CN1CCN(c2ccc(C(F)(F)F)cc2)CC1)c1ccc(C(=O)Nc2ccccc2N)cc1 | 12.4 µM | 51.8 µM | 9.64 µM | > 100 µM | 1.1 µM | > 100 µM | 0.0732 µM | 0.279 µM | 22.6 µM | > 100 µM | 7.51 µM | > 60.5 µM | 18.2 µM | > 100 µM | 21 µM | > 100 µM | 6.93 µM | 97.8 µM | 3.95 µM | 23.7 µM
4 | CC1=C2CC(C)(C)/C=C\C(=O)/C(C)=C\C3=C[C@H](C)C[C@]3(O2)C1=O | – | 12.2 µM | – | 2.9 µM | – | 0.826 µM | – | 2.43 µM | – | 22.3 µM | – | 8.49 µM | – | 5.44 µM | – | 12.1 µM | – | 1.5 µM | – | 2.88 µM
5 | Cc1c2ccn(O)cc2c(C)c2c1nc1ccccc12 | – | 21.3 µM | – | > 85.7 µM | – | 15.2 µM | – | 38.3 µM | – | 8.44 µM | – | 29 µM | – | 55.8 µM | – | > 100 µM | – | 53.8 µM | – | 38.5 µM
6 | CC(=O)/C(=C/c1ccccc1)C(=O)CC(C)C | 21.2 µM | 42.4 µM | 11.2 µM | 26.3 µM | 2.46 µM | 7.37 µM | 22.1 µM | 90.2 µM | 3.89 µM | 21.2 µM | 25.1 µM | 71.4 µM | 16.4 µM | 33.6 µM | 14.4 µM | 28 µM | 14.9 µM | 28.9 µM | 32.7 µM | > 100 µM
7 | O=C1/C=C/[C@@H](O)[C@@H]2C[C@@H](O)C[C@H]2/C=C/CCC[C@H](CCc2cccc3ccccc23)O1 | 0.0358 µM | 14.5 µM | 0.305 µM | 12.5 µM | 0.0353 µM | 1.33 µM | 0.0923 µM | 0.366 µM | 0.779 µM | > 49.2 µM | 0.0178 µM | 0.0351 µM | 0.267 µM | 12.1 µM | 0.377 µM | 14.7 µM | 0.0609 µM | 12.1 µM | 12.3 µM | 26.4 µM
8 | COc1cc(C2CC(c3cccc(Nc4ccnc5cc(Cl)ccc45)c3)=NN2c2ccc(Cl)cc2)cc(OC)c1OC (stereo not given) | 2.22 µM | > 100 µM | 1.48 µM | > 100 µM | 2.54 µM | > 100 µM | 4.18 µM | > 100 µM | 2.45 µM | 86.8 µM | 8.45 µM | > 100 µM | 3.89 µM | > 100 µM | 17.1 µM | > 100 µM | 4.63 µM | 78.6 µM | 1.85 µM | 74.8 µM
9 | CCCCCCCCCCCCCCCCCc1nccn1CCOCCO | 4.88 µg/mL | 9.7 µg/mL | 5.95 µg/mL | 11.1 µg/mL | 4.93 µg/mL | 11.9 µg/mL | 7.56 µg/mL | 15.2 µg/mL | 5.34 µg/mL | 12.7 µg/mL | 4.36 µg/mL | 10 µg/mL | 6.03 µg/mL | 13.2 µg/mL | 5.34 µg/mL | 10.4 µg/mL | 6.1 µg/mL | 11.7 µg/mL | 2.33 µg/mL | 7.98 µg/mL
